13 compounds from ChEMBL document CHEMBL5033995, “Discovery and Early Clinical Development of LY3202626, a Low-Dose, CNS-Penetrant BACE Inhibitor” (J Med Chem, 2021) can be followed below.

For orientation: bioavailability means dose-corrected exposure relative to a reference, in per cent. By pKa is commonly meant the negative logarithm of the acid dissociation constant. A word on the clearance: it is a measure of how efficiently the substance is removed, as volume per time. The logP is the decadic logarithm of the partition coefficient of the neutral form, usually between octanol and water. A low value points to lower lipophilicity. For orientation: CL/F means clearance divided by bioavailability, as obtained after extravascular dosing.

Data set [1] is described as follows: Bioavailability in rat. Format: ADME, organism-based. Conditions: in vivo.
A short description of data set [2]: Permeability in MDCK cells. Format: ADME, cell-based, Canis lupus familiaris. Conditions: dog, read-out: permeability.
Data set [3] in a line: Dissociation constant, pKa of compound. The class given is physicochemical.
Data set [4] is described as follows: Clearance in dog at 1 mg/kg, iv by LC-MS/MS analysis. The note with it: in vivo. The class given is ADME, organism-based, Canis lupus familiaris.
The nature of data set [5]: Stability in dog liver microsomes at 2 uM measured upto 30 mins in presence of NADPH by LC-MS/MS analysis. Format: ADME, Canis lupus familiaris, Microsome. Conditions: read-out: Stability. A general note: Liver microsomes are vesicles of endoplasmic reticulum, rich in cytochrome P450 enzymes.
Data set [6] can be described thus: Stability in mouse liver microsomes at 2 uM measured upto 30 mins in presence of NADPH by LC-MS/MS analysis. The class given is ADME, Microsome. The note with it: read-out: Stability.
A short description of data set [7]: Stability in rat liver microsomes at 2 uM measured upto 30 mins in presence of NADPH by LC-MS/MS analysis. The note with it: read-out: Stability. The class given is ADME, Microsome.
Data set [8] is described as follows: Stability in human liver microsomes at 2 uM measured upto 30 mins in presence of NADPH by LC-MS/MS analysis. The class given is ADME, Microsome. Conditions: read-out: Stability.
Data set [9] in a line: Lipophilicity, log P of the compound. The class given is physicochemical. Conditions: octanol/water.
The nature of data set [10]: Volume of distribution at steady state in rat at 2 mg/kg, iv by LC-MS/MS analysis. The class given is ADME, organism-based. Conditions: in vivo, read-out: Vdss.
Data set [11] can be described thus: Clearance in rat at 2 mg/kg, iv by LC-MS/MS analysis. The note with it: in vivo. The class given is ADME, organism-based.
Data set [12] is described as follows: Ratio of free drug concentration in CSF to plasma of dog. The class given is ADME, Canis lupus familiaris. The note with it: CSF and plasma.
Data set [13] is described as follows: Volume of distribution at steady state in dog at 1 mg/kg, iv by LC-MS/MS analysis. The class given is ADME, organism-based, Canis lupus familiaris. Conditions: in vivo, read-out: Vdss.
Data set [14] in a line: Drug accumulation in human HepG2 cells lysosomes assessed as maximum fluorescence response after 24 hrs by Lysotracker Green DND-26 dye based assay. Format: ADME, cell-based. The note with it: hepg2, 24 h.
Data set [15] can be described thus: Oral clearance in human. The class given is ADME.
Another data set is described as follows: clinical. Conditions: human, CSF and plasma.

Consider `NC1=N[C@@]2(c3cc(NC(=O)c4ncc(F)cc4F)ccc3F)CN(c3ncc(F)cn3)C[C@H]2CS1`, for which the bioavailability in data set [1] came to 55%. In addition, the Papp in [2] was determined as 30 ×10⁻⁶ cm/s. The compound further gave a pKa in data set [3] of 7.7. Moreover, the figures for the clearance in data set [4] and in [11] were 2.7 mL/min/kg and 15 mL/min/kg, respectively. In addition, the remaining at 0.5 h, 2 µM stood at 7% in data set [5], 22% in data set [6], 7% in data set [7] and 13% in data set [8]. This compound displayed a lipophilicity (logP) in data set [9] of 2.8. Moreover, the Vd in data set [10] is 2.2 L/kg; in data set [13], 0.52 L/kg. Further, the Kp uu in data set [12] stood at 0.2.

With `Cl.NC1=N[C@@]2(c3ccns3)CN(c3ncc(F)cn3)C[C@H]2CS1`, in data set [2], the Papp was found to be 59 ×10⁻⁶ cm/s. Also, the Rmax in data set [14] is 20. This compound displayed a pKa in data set [3] of 6.4. For the same compound, the clearance stood at 6 mL/min/kg in data set [4] and 53.2 mL/min/kg in [11]. The compound further had a logP in data set [9] of 1.3. Moreover, the Vd amounted to 2.87 L/kg in data set [10] and 2.1 L/kg in [13]. For the same compound, in [12], the Kp uu amounted to 1.

Turning to `Cl.N#Cc1ccc([C@]23CN(c4ncc(F)cn4)C[C@H]2CSC(N)=N3)s1`, in data set [14], the Rmax was 91. The pKa in data set [3] came out at 6.6. Further, in data set [9], the log partition coefficient (logP) is 2.3.

On to `COc1cnc(C(=O)Nc2ccc(F)c([C@]34CN(c5ncc(F)cn5)C[C@H]3CSC(N)=N4)c2)cn1`, for which the bioavailability in [1] was 47%. Besides, the Papp in data set [2] turned out to be 19 ×10⁻⁶ cm/s. For the same compound, the pKa in [3] turned out to be 7.6. The clearance in data set [4] came to 5.2 mL/min/kg; in data set [11] it was 20 mL/min/kg. Also, the remaining at 0.5 h, 2 µM stood at 50% in data set [5], 27% in [6], 7% in data set [7] and 12% in [8]. In [9], this compound displayed a log partition coefficient (logP) of 3.2. The values for the Vd in data set [10] and in data set [13] were 5.2 L/kg and 0.78 L/kg, respectively. The compound further showed an apparent clearance (CL/F) in data set [15] of 26 mL/min/kg. For the same compound, the figures for the Kp uu (in the data set “clinical”; in data set [12]) were 1 and 0.9, respectively.

Regarding `C[C@@H]1C[C@H]1COC(C)(C)[C@@H]1C[C@H]1[C@]12CN(c3ncccn3)C[C@H]1CSC(N)=N2`, the Papp in data set [2] worked out at 36 ×10⁻⁶ cm/s. Moreover, the remaining at 0.5 h, 2 µM in data set [5] is 79%; in data set [6], 98%; in data set [7] it was 98%; in data set [8], 31%.

On to `C[C@@H]1C[C@H]1CNC(=O)[C@@H]1C[C@H]1[C@]12CN(c3ncccn3)C[C@H]1CSC(N)=N2`, for which the Papp in data set [2] is 8 ×10⁻⁶ cm/s. This compound also came in with a pKa in data set [3] of 8. The remaining at 0.5 h, 2 µM in data set [5] turned out to be 28%; in data set [6], 33%; in [7], 55%; in data set [8], 13%. The log partition coefficient (logP) in data set [9] worked out at 2.

Turning to `C[C@@H]1C[C@H]1CNC(=O)[C@@H]1C[C@H]1[C@]12COC[C@H]1CSC(N)=N2`, the Papp in data set [2] came to 14 ×10⁻⁶ cm/s. This compound displayed a pKa in [3] of 8. The remaining at 0.5 h, 2 µM in [5] came to 8%; in [6] it was 23%; in data set [7] it was 84%; in [8], 19%. Besides, the log partition coefficient (logP) in data set [9] is 0.8.

`Cl.Cl.NC1=N[C@@]2(c3cccs3)CN(c3ncccn3)C[C@H]2CS1`: the Papp in [2] is 59 ×10⁻⁶ cm/s. Besides, the pKa in data set [3] was 7.6. The same compound showed a logP in data set [9] of 1.9.

On to `Cl.NC1=N[C@@]2(c3cnccn3)CN(c3ncc(F)cn3)C[C@H]2CS1`, for which the Papp in data set [2] stood at 54 ×10⁻⁶ cm/s. The Rmax in data set [14] was determined as 59. The compound also displayed a pKa in data set [3] of 7.1. Also, the logP in [9] was 0.8.

As to `Cl.NC1=N[C@@]2(c3cccs3)CN(c3ncc(F)cn3)C[C@H]2CS1`, the Papp in data set [2] stood at 60 ×10⁻⁶ cm/s. Also, in [14], the Rmax came to 4090. This compound also registered a pKa in data set [3] of 7.5. The compound also registered a lipophilicity (logP) in data set [9] of 2.4.

In [1], `NC1=N[C@@]2(c3cc(NC(=O)c4ccc(F)cn4)ccc3F)CN(c3ncc(F)cn3)C[C@H]2CS1` (relative stereo) came in with a bioavailability of 72%. Further, the Papp in data set [2] amounted to 33 ×10⁻⁶ cm/s. In data set [3], the pKa came to 7.9. For the same compound, the clearance in data set [4] came to 1.6 mL/min/kg; in data set [11], 7.8 mL/min/kg. Also, the remaining at 0.5 h, 2 µM in data set [5] was found to be 8%; in data set [6] it was 25%; in data set [7], 16%; in [8], 13%. The lipophilicity (logP) in [9] stood at 3.1. The Vd in [10] is 2.5 L/kg; in data set [13] it was 1.1 L/kg. For the same compound, in data set [12], the Kp uu was determined as 0.1.

Consider `C[C@@]1(c2cc(-c3cncnc3)c(F)cc2F)CCSC(N)=N1` [LY-2811376], for which the Papp in data set [2] turned out to be 60 ×10⁻⁶ cm/s. Also, in [14], the Rmax is listed as 3364. This compound had a pKa in [3] of 8.8. Besides, the lipophilicity (logP) in [9] stood at 2.9.

`NC1=N[C@@]2(c3cc(NC(=O)c4ccc(F)cn4)ccc3F)COC[C@H]2CS1` [LY-2886721]: the bioavailability in data set [1] was 30%. Further, in data set [2], the Papp was determined as 55 ×10⁻⁶ cm/s. Moreover, in data set [14], the Rmax is on record as 7863. For the same compound, in data set [3], the pKa was found to be 7.7. For the same compound, the figures for the clearance in data set [4] and in data set [11] were 4.9 mL/min/kg and 94 mL/min/kg, respectively. In addition, the remaining at 0.5 h, 2 µM in [5] came to 0%; in data set [6], 33%; in data set [7], 19%; in data set [8], 11%. In addition, the logP in data set [9] stood at 2.1. Further, the Vd in [10] is 10.4 L/kg; in data set [13] it was 2.3 L/kg. Moreover, the Kp uu in data set [12] is 0.9.
